# In US20060134102A1, “Lymphotoxin beta receptor agents in combination with chemotherapeutic agents” (Biogen Idec MA Inc., priority 2002, published 2006):
# System: KM-20L2 human colorectal adenocarcinoma
# Experiment: KM-20L2 xenograft model: growth of established KM-20L2 human colorectal tumors in athymic nude mice (tumor volume/weight, % T/C, Fa, Combination Index)
# Type: in vivo
smiles,measurement,setting,value
"Nc1ccn([C@@H]2O[C@H](CO)[C@@H](O)C2(F)F)c(=O)n1 [Gemcitabine, gemcitabine, reference compound]",Mean Fraction Affected (Fa),"Gem 5 mg/kg, Day 9",0.097
same,Mean Fraction Affected/Fraction Unaffected (Fa/Fu),"Gem 5 mg/kg, Day 9",0.107
same,Mean Tumor Volume,"Gem 5 mg/kg, Day 9",101.0 cubic mm
same,Mean Tumor Volume Decrease,"Gem 5 mg/kg, Day 9",10.8 cubic mm
same,Mean Fraction Affected (Fa),"Gem 5 mg/kg, Day 13",0.178
same,Mean Fraction Affected/Fraction Unaffected (Fa/Fu),"Gem 5 mg/kg, Day 13",0.217
same,Mean Tumor Volume,"Gem 5 mg/kg, Day 13",141.8 cubic mm
same,Mean Tumor Volume Decrease,"Gem 5 mg/kg, Day 13",30.8 cubic mm
same,Mean Fraction Affected (Fa),"Gem 5 mg/kg, Day 16",0.230
same,Mean Fraction Affected/Fraction Unaffected (Fa/Fu),"Gem 5 mg/kg, Day 16",0.298
same,Mean Tumor Volume,"Gem 5 mg/kg, Day 16",204.1 cubic mm
same,Mean Tumor Volume Decrease,"Gem 5 mg/kg, Day 16",60.9 cubic mm
same,Mean Fraction Affected (Fa),"Gem 5 mg/kg, Day 20",0.310
same,Mean Fraction Affected/Fraction Unaffected (Fa/Fu),"Gem 5 mg/kg, Day 20",0.449
same,Mean Tumor Volume,"Gem 5 mg/kg, Day 20",276.8 cubic mm
same,Mean Tumor Volume Decrease,"Gem 5 mg/kg, Day 20",124.2 cubic mm
same,Mean Fraction Affected (Fa),"Gem 5 mg/kg, Day 23",0.295
same,Mean Fraction Affected/Fraction Unaffected (Fa/Fu),"Gem 5 mg/kg, Day 23",0.419
same,Mean Tumor Volume,"Gem 5 mg/kg, Day 23",371.6 cubic mm
same,Mean Tumor Volume Decrease,"Gem 5 mg/kg, Day 23",155.6 cubic mm
same,Mean Fraction Affected (Fa),"Gem 5 mg/kg, Day 27",0.242
same,Mean Fraction Affected/Fraction Unaffected (Fa/Fu),"Gem 5 mg/kg, Day 27",0.320
same,Mean Tumor Volume,"Gem 5 mg/kg, Day 27",506.7 cubic mm
same,Mean Tumor Volume Decrease,"Gem 5 mg/kg, Day 27",161.9 cubic mm
same,Mean Fraction Affected (Fa),"Gem 5 mg/kg, Day 30",0.245
same,Mean Fraction Affected/Fraction Unaffected (Fa/Fu),"Gem 5 mg/kg, Day 30",0.325
same,Mean Tumor Volume,"Gem 5 mg/kg, Day 30",616.2 cubic mm
same,Mean Tumor Volume Decrease,"Gem 5 mg/kg, Day 30",200.0 cubic mm
same,Mean Fraction Affected (Fa),"Gem 5 mg/kg, Day 34",0.295
same,Mean Fraction Affected/Fraction Unaffected (Fa/Fu),"Gem 5 mg/kg, Day 34",0.419
same,Mean Tumor Volume,"Gem 5 mg/kg, Day 34",740.4 cubic mm
same,Mean Tumor Volume Decrease,"Gem 5 mg/kg, Day 34",309.9 cubic mm
same,Mean Fraction Affected (Fa),"Gem 5 mg/kg, Day 37",0.274
same,Mean Fraction Affected/Fraction Unaffected (Fa/Fu),"Gem 5 mg/kg, Day 37",0.377
same,Mean Tumor Volume,"Gem 5 mg/kg, Day 37",877.5 cubic mm
same,Mean Tumor Volume Decrease,"Gem 5 mg/kg, Day 37",330.5 cubic mm
same,Mean Fraction Affected (Fa),"Gem 5 mg/kg, Day 41",0.253
same,Mean Fraction Affected/Fraction Unaffected (Fa/Fu),"Gem 5 mg/kg, Day 41",0.339
same,Mean Tumor Volume,"Gem 5 mg/kg, Day 41",1075.3 cubic mm
same,Mean Tumor Volume Decrease,"Gem 5 mg/kg, Day 41",364.1 cubic mm
same,Mean Fraction Affected (Fa),"Gem 5 mg/kg, Day 43",0.226
same,Mean Fraction Affected/Fraction Unaffected (Fa/Fu),"Gem 5 mg/kg, Day 43",0.291
same,Mean Tumor Volume,"Gem 5 mg/kg, Day 43",1244.3 cubic mm
same,Mean Tumor Volume Decrease,"Gem 5 mg/kg, Day 43",362.4 cubic mm
same,Mean Fraction Affected (Fa),"Gem 10 mg/kg, Day 9",0.084
same,Mean Fraction Affected/Fraction Unaffected (Fa/Fu),"Gem 10 mg/kg, Day 9",0.092
same,Mean Tumor Volume,"Gem 10 mg/kg, Day 9",102.4 cubic mm
same,Mean Tumor Volume Decrease,"Gem 10 mg/kg, Day 9",9.4 cubic mm
same,Mean Fraction Affected (Fa),"Gem 10 mg/kg, Day 13",0.184
same,Mean Fraction Affected/Fraction Unaffected (Fa/Fu),"Gem 10 mg/kg, Day 13",0.225
same,Mean Tumor Volume,"Gem 10 mg/kg, Day 13",140.9 cubic mm
same,Mean Tumor Volume Decrease,"Gem 10 mg/kg, Day 13",31.7 cubic mm
same,Mean Fraction Affected (Fa),"Gem 10 mg/kg, Day 16",0.362
same,Mean Fraction Affected/Fraction Unaffected (Fa/Fu),"Gem 10 mg/kg, Day 16",0.568
same,Mean Tumor Volume,"Gem 10 mg/kg, Day 16",169.0 cubic mm
same,Mean Tumor Volume Decrease,"Gem 10 mg/kg, Day 16",96.0 cubic mm
same,Mean Fraction Affected (Fa),"Gem 10 mg/kg, Day 20",0.422
same,Mean Fraction Affected/Fraction Unaffected (Fa/Fu),"Gem 10 mg/kg, Day 20",0.731
same,Mean Tumor Volume,"Gem 10 mg/kg, Day 20",231.7 cubic mm
same,Mean Tumor Volume Decrease,"Gem 10 mg/kg, Day 20",169.3 cubic mm
same,Mean Fraction Affected (Fa),"Gem 10 mg/kg, Day 23",0.410
same,Mean Fraction Affected/Fraction Unaffected (Fa/Fu),"Gem 10 mg/kg, Day 23",0.694
same,Mean Tumor Volume,"Gem 10 mg/kg, Day 23",311.2 cubic mm
same,Mean Tumor Volume Decrease,"Gem 10 mg/kg, Day 23",216.0 cubic mm
same,Mean Fraction Affected (Fa),"Gem 10 mg/kg, Day 27",0.376
same,Mean Fraction Affected/Fraction Unaffected (Fa/Fu),"Gem 10 mg/kg, Day 27",0.602
same,Mean Tumor Volume,"Gem 10 mg/kg, Day 27",417.4 cubic mm
same,Mean Tumor Volume Decrease,"Gem 10 mg/kg, Day 27",251.2 cubic mm
same,Mean Fraction Affected (Fa),"Gem 10 mg/kg, Day 30",0.388
same,Mean Fraction Affected/Fraction Unaffected (Fa/Fu),"Gem 10 mg/kg, Day 30",0.634
same,Mean Tumor Volume,"Gem 10 mg/kg, Day 30",499.5 cubic mm
same,Mean Tumor Volume Decrease,"Gem 10 mg/kg, Day 30",316.7 cubic mm
same,Mean Fraction Affected (Fa),"Gem 10 mg/kg, Day 34",0.388
same,Mean Fraction Affected/Fraction Unaffected (Fa/Fu),"Gem 10 mg/kg, Day 34",0.635
same,Mean Tumor Volume,"Gem 10 mg/kg, Day 34",642.3 cubic mm
same,Mean Tumor Volume Decrease,"Gem 10 mg/kg, Day 34",408.0 cubic mm
same,Mean Fraction Affected (Fa),"Gem 10 mg/kg, Day 37",0.401
same,Mean Fraction Affected/Fraction Unaffected (Fa/Fu),"Gem 10 mg/kg, Day 37",0.669
